This passage reports Activity results from ChEMBL document CHEMBL1671626, “In vitro profiling of ceftaroline against a collection of recent bacterial clinical isolates from across the United States” (2008).

Structures are written as SMILES.

Format in all cases: functional
For assay [1], the system named is Streptococcus viridans. Kind of assay: Antibacterial activity against penicillin-susceptible Streptococcus viridans assessed as susceptible isolates by CLSI M7-A7 broth microdilution method.
In assay [2] the test system is Enterococcus faecalis. Kind of assay: Antibacterial activity against vancomycin-resistant Enterococcus faecalis assessed as resistant isolates by CLSI M7-A7 broth microdilution method.
In assay [3] the test system is Streptococcus agalactiae. Kind of assay: Antibacterial activity against erythromycin-susceptible Streptococcus agalactiae assessed as resistant isolates by CLSI M7-A7 broth microdilution method.
The subject of assay [4] is Enterococcus faecalis. Briefly: Antibacterial activity against vancomycin-susceptible Enterococcus faecalis assessed as resistant isolates by CLSI M7-A7 broth microdilution method.
The test system of assay [5] is Enterococcus faecium. Briefly: Antibacterial activity against vancomycin-resistant Enterococcus faecium assessed as susceptible isolates by CLSI M7-A7 broth microdilution method.
The test system of assay [6] is Streptococcus pyogenes. Briefly: Antibacterial activity against erythromycin-susceptible Streptococcus pyogenes assessed as resistant isolates by CLSI M7-A7 broth microdilution method.
Assay [7] concerns Streptococcus pyogenes. Kind of assay: Antibacterial activity against erythromycin-nonsusceptible Streptococcus pyogenes assessed as resistant isolates by CLSI M7-A7 broth microdilution method.
In assay [8] the test system is Streptococcus agalactiae. Briefly: Antibacterial activity against erythromycin-nonsusceptible Streptococcus agalactiae assessed as resistant isolates by CLSI M7-A7 broth microdilution method.
In assay [9] the test system is Enterococcus faecalis. Kind of assay: Antibacterial activity against vancomycin-susceptible Enterococcus faecalis assessed as susceptible isolates by CLSI M7-A7 broth microdilution method.
In assay [10] the test system is Enterococcus faecium. Briefly: Antibacterial activity against vancomycin-resistant Enterococcus faecium assessed as resistant isolates by CLSI M7-A7 broth microdilution method.
Assay [11] relates to Streptococcus viridans. Kind of assay: Antibacterial activity against penicillin-nonsusceptible Streptococcus viridans assessed as resistant isolates by CLSI M7-A7 broth microdilution method.
The test system of assay [12] is Enterococcus faecalis. Briefly: Antibacterial activity against vancomycin-resistant Enterococcus faecalis assessed as susceptible isolates by CLSI M7-A7 broth microdilution method.

As to `CO/N=C(\C(=O)N[C@@H]1C(=O)N2C(C(=O)O)=C(CSc3nc(=O)c(O)nn3C)CS[C@H]12)c1csc(N)n1` [CEFTRIAXONE], the Activity in the assay on Streptococcus viridans [1] was 100%.
For `C[C@H]1COc2c(N3CCN(C)CC3)c(F)cc3c(=O)c(C(=O)O)cn1c23.C[C@H]1COc2c(N3CCN(C)CC3)c(F)cc3c(=O)c(C(=O)O)cn1c23.O` [LEVOFLOXACIN], the Activity in the assay on Enterococcus faecalis [2] amounted to 96%; in the assay on Streptococcus agalactiae [3], 0%; in the assay on Enterococcus faecalis [4], 40.8%; with Enterococcus faecium [5] it was 0%; in the assay on Streptococcus viridans [1] it was 100%; with Streptococcus pyogenes [6] it was 0%. Also, the Activity stood at 0% in the assay on Streptococcus pyogenes [7]; 2.4% in the assay on Streptococcus agalactiae [8]; 59.2% in the assay on Enterococcus faecalis [9]; 100% in the assay on Enterococcus faecium [10]; 7.1% in the assay with Streptococcus viridans [11]; 4% in the assay on Enterococcus faecalis [12].
